Reference: patent publication US20260053932A1, “COMPOUNDS AND METHODS FOR THE TARGETED DEGRADATION OF ANDROGEN RECEPTOR AND ASSOCIATED METHODS OF USE” (Arvinas Operations, Inc., priority 2020, published 2026)

The molecules below were run on androgen receptor (AR) in LNCaP and/or VCaP cells (assay: Androgen Receptor ELISA assay (AR degradation)). Settings: LNCaP and/or VCaP cells; 5 hours incubation; media with R1881; read-out: DC50 Code* (degradation of AR ELISA).
Format: cell-based
Outline: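 VCaP cells grown ≥3 days, then treated 5 h with compound in media containing 1 nM R1881 (10× stock). Cells lysed and AR quantified by sandwich ELISA (mouse AR detection Ab, HRP anti-mouse, TMB). DC50 and Dmax derived from AR degradation.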

DC50, < 1 nM:
CCN(CC1CCN(c2cnc(C(=O)N[C@H]3CC[C@H](Oc4ccc(C#N)c(Cl)c4)CC3)cn2)CC1)[C@H]1C[C@H](Oc2ccc3c(c2)C(=O)N(C2CCC(=O)NC2=O)C3=O)C1 (stereo partly drawn) [Compound 28, N-((1r,4r)-4-(3-chloro-4-cyanophenoxy)cyclohexyl)-5-(4-((((1r,3r)-3-((2-(2,6-dioxopiperidin-3-yl)-1,3-dioxoisoindolin-5-yl)oxy)cyclobutyl)(ethyl)amino)methyl)piperidin-1-yl)pyrazine-2-carboxamide]
COc1cc(O[C@H]2CC[C@H](NC(=O)c3cnc(N4CCC(CN(C(C)=O)[C@H]5C[C@H](Oc6ccc7c(c6)C(=O)N(C6CCC(=O)NC6=O)C7=O)C5)CC4)cn3)CC2)ccc1C#N (stereo partly drawn) [Compound 29, N-((1r,4r)-4-(4-cyano-3-methoxyphenoxy)cyclohexyl)-5-(4-((N-((1r,3r)-3-((2-(2,6-dioxopiperidin-3-yl)-1,3-dioxoisoindolin-5-yl)oxy)cyclobutyl)acetamido)methyl)piperidin-1-yl)pyrazine-2-carboxamide]
N#Cc1ccc(O[C@H]2CC[C@H](NC(=O)c3cnc(N4CCC(CN(C5CCOCC5)[C@H]5C[C@H](Oc6ccc7c(c6)C(=O)N(C6CCC(=O)NC6=O)C7=O)C5)CC4)cn3)CC2)cc1Cl (stereo partly drawn) [Compound 30, N-((1r,4r)-4-(3-chloro-4-cyanophenoxy)cyclohexyl)-5-(4-((((1r,3r)-3-((2-(2,6-dioxopiperidin-3-yl)-1,3-dioxoisoindolin-5-yl)oxy)cyclobutyl) (tetrahydro-2H-pyran-4-yl)amino)methyl)piperidin-1-yl)pyrazine-2-carboxamide]
COc1cc(O[C@H]2CC[C@H](NC(=O)c3cnc(N4CCC(CN(C(C)C)[C@H]5CC[C@H](Oc6ccc7c(c6)C(=O)N(C6CCC(=O)NC6=O)C7=O)CC5)CC4)cn3)CC2)ccc1C#N (stereo partly drawn) [Compound 31, N-((1r,4r)-4-(4-cyano-3-methoxyphenoxy)cyclohexyl)-5-(4-((((1r,4r)-4-((2-(2,6-dioxopiperidin-3-yl)-1,3-dioxoisoindolin-5-yl)oxy)cyclohexyl) (isopropyl)amino)methyl)piperidin-1-yl)pyrazine-2-carboxamide]
COc1cc(O[C@H]2CC[C@H](NC(=O)c3cnc(N4CCC(CN(C(C)C)[C@H]5C[C@H](Oc6ccc7c(c6)C(=O)N(C6CCC(=O)NC6=O)C7=O)C5)CC4)cn3)CC2)ccc1C#N (stereo partly drawn) [Compound 32, N-((1r,4r)-4-(4-cyano-3-methoxyphenoxy)cyclohexyl)-5-(4-((((1r,3r)-3-((2-(2,6-dioxopiperidin-3-yl)-1,3-dioxoisoindolin-5-yl)oxy)cyclobutyl) (isopropyl)amino)methyl)piperidin-1-yl)pyrazine-2-carboxamide]
CCN(CC1CCN(c2cnc(C(=O)N[C@H]3CC[C@H](Oc4ccc(C#N)c(OC)c4)CC3)cn2)CC1)[C@H]1C[C@H](Oc2ccc3c(c2)C(=O)N(C2CCC(=O)NC2=O)C3=O)C1 (stereo partly drawn) [Compound 33, N-((1r,4r)-4-(4-cyano-3-methoxyphenoxy)cyclohexyl)-5-(4-((((1r,3r)-3-((2-(2,6-dioxopiperidin-3-yl)-1,3-dioxoisoindolin-5-yl)oxy)cyclobutyl)(ethyl)amino)methyl)piperidin-1-yl)pyrazine-2-carboxamide]
COc1cc(O[C@H]2CC[C@H](NC(=O)c3cnc(N4CCC(CN(C(C)C)[C@H]5C[C@H](Oc6ccc7c(c6)C(=O)N(C6CCC(=O)NC6=O)C7)C5)CC4)cn3)CC2)ccc1C#N (stereo partly drawn) [Compound 34, N-((1r,4r)-4-(4-cyano-3-methoxyphenoxy)cyclohexyl)-5-(4-((((1r,3r)-3-((2-(2,6-dioxopiperidin-3-yl)-3-oxoisoindolin-5-yl)oxy)cyclobutyl) (isopropyl)amino)methyl)piperidin-1-yl)pyrazine-2-carboxamide]
CC(C)N(CC1CCN(c2cnc(C(=O)N[C@H]3CC[C@H](Oc4ccc(C#N)c(Cl)c4)CC3)cn2)CC1)[C@H]1CC[C@H](Oc2ccc3c(c2)C(=O)N(C2CCC(=O)NC2=O)C3=O)CC1 (stereo partly drawn) [Compound 35, N-((1r,4r)-4-(3-chloro-4-cyanophenoxy)cyclohexyl)-5-(4-((((1r,4r)-4-((2-(2,6-dioxopiperidin-3-yl)-1,3-dioxoisoindolin-5-yl)oxy)cyclohexyl) (isopropyl)amino)methyl)piperidin-1-yl)pyrazine-2-carboxamide]
COc1cc(O[C@H]2CC[C@H](NC(=O)c3cnc(N4CC5(CC(CN(C(C)C)[C@H]6C[C@H](Oc7ccc8c(c7)C(=O)N(C7CCC(=O)NC7=O)C8=O)C6)C5)C4)nc3)CC2)ccc1C#N (stereo partly drawn) [Compound 36, N-((1r,4r)-4-(4-cyano-3-methoxyphenoxy)cyclohexyl)-2-(6-((((1r,3r)-3-((2-(2,6-dioxopiperidin-3-yl)-1,3-dioxoisoindolin-5-yl)oxy)cyclobutyl) (isopropyl)amino)methyl)-2-azaspiro[3.3]heptan-2-yl)pyrimidine-5-carboxamide]
CC(C)N(CC1CN(c2cnc(C(=O)N[C@H]3CC[C@H](Oc4ccc(C#N)c(Cl)c4)CC3)cn2)C1)[C@H]1C[C@H](Oc2ccc3c(c2)C(=O)N(C2CCC(=O)NC2=O)C3=O)C1 (stereo partly drawn) [Compound 37, N-((1r,4r)-4-(3-chloro-4-cyanophenoxy)cyclohexyl)-5-(3-((((1r,3r)-3-((2-(2,6-dioxopiperidin-3-yl)-1,3-dioxoisoindolin-5-yl)oxy)cyclobutyl) (isopropyl)amino)methyl)azetidin-1-yl)pyrazine-2-carboxamide]
COc1cc(O[C@H]2CC[C@H](NC(=O)c3cnc(N4CCC(CN(C(C)C)[C@H]5C[C@H](Oc6cc(OC)c7c(c6)C(=O)N(C6CCC(=O)NC6=O)C7=O)C5)CC4)cn3)CC2)ccc1C#N (stereo partly drawn) [Compound 38, N-((1r,4r)-4-(4-cyano-3-methoxyphenoxy)cyclohexyl)-5-(4-((((1r,3r)-3-((2-(2,6-dioxopiperidin-3-yl)-7-methoxy-1,3-dioxoisoindolin-5-yl)oxy)cyclobutyl) (isopropyl)amino)methyl)piperidin-1-yl)pyrazine-2-carboxamide]
COc1cc(O[C@H]2CC[C@H](NC(=O)c3cnc(N4CCC(CN(C)[C@H]5C[C@H](Oc6ccc7c(c6)C(=O)N(C6CCC(=O)NC6=O)C7=O)C5)CC4)cn3)CC2)ccc1C#N (stereo partly drawn) [Compound 39, N-((1r,4r)-4-(4-cyano-3-methoxyphenoxy)cyclohexyl)-5-(4-((((1r,3r)-3-((2-(2,6-dioxopiperidin-3-yl)-1,3-dioxoisoindolin-5-yl)oxy)cyclobutyl) (methyl)amino)methyl)piperidin-1-yl)pyrazine-2-carboxamide]
CC(C)Oc1cc(N2CCN(CC3CCN(c4ccc(C(=O)N[C@H]5CC[C@H](Oc6ccc(C#N)c(Cl)c6)CC5)nn4)CC3)CC2)cc2c1C(=O)N(C1CCC(=O)NC1=O)C2=O (stereo partly drawn) [Compound 40, N-((1r,4r)-4-(3-chloro-4-cyanophenoxy)cyclohexyl)-6-(4-((4-(2-(2,6-dioxopiperidin-3-yl)-7-isopropoxy-1,3-dioxoisoindolin-5-yl)piperazin-1-yl)methyl)piperidin-1-yl)pyridazine-3-carboxamide]
CC(C)N(CC1CCN(c2cnc(C(=O)N[C@H]3CC[C@H](Oc4ccc(C#N)c(Cl)c4)CC3)cn2)CC1)[C@H]1C[C@H](Oc2ccc3c(c2)C(=O)N(C2CCC(=O)NC2=O)C3)C1 (stereo partly drawn) [Compound 41, N-((1r,4r)-4-(3-chloro-4-cyanophenoxy)cyclohexyl)-5-(4-((((1r,3r)-3-((2-(2,6-dioxopiperidin-3-yl)-3-oxoisoindolin-5-yl)oxy)cyclobutyl) (isopropyl)amino)methyl)piperidin-1-yl)pyrazine-2-carboxamide]
CC(C)N(CC1CCN(c2cnc(C(=O)N[C@H]3CC[C@H](Oc4ccc(C#N)c(Cl)c4)CC3)cn2)CC1)[C@H]1C[C@H](Oc2cc(F)c3c(c2)C(=O)N(C2CCC(=O)NC2=O)C3=O)C1 (stereo partly drawn) [Compound 42, N-((1r,4r)-4-(3-chloro-4-cyanophenoxy)cyclohexyl)-5-(4-((((1r,3r)-3-((2-(2,6-dioxopiperidin-3-yl)-7-fluoro-1,3-dioxoisoindolin-5-yl)oxy)cyclobutyl) (isopropyl)amino)methyl)piperidin-1-yl)pyrazine-2-carboxamide]
CCOc1cc(O[C@H]2CC[C@H](NC(=O)c3cnc(N4CC(CN(C(C)C)[C@H]5C[C@H](Oc6ccc7c(c6)C(=O)N(C6CCC(=O)NC6=O)C7=O)C5)C4)cn3)CC2)ccc1C#N (stereo partly drawn) [Compound 43, N-((1r,4r)-4-(4-cyano-3-ethoxyphenoxy)cyclohexyl)-5-(3-((((1r,3r)-3-((2-(2,6-dioxopiperidin-3-yl)-1,3-dioxoisoindolin-5-yl)oxy)cyclobutyl) (isopropyl)amino)methyl)azetidin-1-yl)pyrazine-2-carboxamide]
CC(C)Oc1cc(O[C@H]2C[C@H](N(CC3CCN(c4cnc(C(=O)N[C@H]5CC[C@H](Oc6ccc(C#N)c(Cl)c6)CC5)cn4)CC3)C(C)C)C2)cc2c1C(=O)N(C1CCC(=O)NC1=O)C2=O (stereo partly drawn) [Compound 44, N-((1r,4r)-4-(3-chloro-4-cyanophenoxy)cyclohexyl)-5-(4-((((1r,3r)-3-((2-(2,6-dioxopiperidin-3-yl)-7-isopropoxy-1,3-dioxoisoindolin-5-yl)oxy)cyclobutyl) (isopropyl)amino)methyl)piperidin-1-yl)pyrazine-2-carboxamide]
CC(C)N(CC1CCN(c2cnc(C(=O)N[C@H]3CC[C@H](Oc4ccc(C#N)c(Cl)c4)CC3)cn2)CC1)[C@H]1C[C@H](Oc2c(F)cc3c(c2F)C(=O)N(C2CCC(=O)NC2=O)C3=O)C1 (stereo partly drawn) [Compound 45, N-((1r,4r)-4-(3-chloro-4-cyanophenoxy)cyclohexyl)-5-(4-((((1r,3r)-3-((2-(2,6-dioxopiperidin-3-yl)-4,6-difluoro-1,3-dioxoisoindolin-5-yl)oxy)cyclobutyl) (isopropyl)amino)methyl)piperidin-1-yl)pyrazine-2-carboxamide]
